According to ChEMBL document CHEMBL1139129, “Bis-styrylpyridine and bis-styrylbenzene derivatives as inhibitors for Abeta fibril formation” (Bioorg Med Chem Lett, 2007):

Tests used:
[1] = target: Amyloid-beta precursor protein (Homo sapiens, UniProt P05067); test: Inhibition of amyloid beta 42 fibril formation by thioflavin T assay
[2] = test system: HT-22; test: Cytotoxicity against HT22 cells assessed as cell viability at 10 uM by MTT assay relative to control; assay type: functional, Homo sapiens; details: Mus musculus, read-out: Activity

Amyloid-beta precursor protein, sequence (P05067 whole entry): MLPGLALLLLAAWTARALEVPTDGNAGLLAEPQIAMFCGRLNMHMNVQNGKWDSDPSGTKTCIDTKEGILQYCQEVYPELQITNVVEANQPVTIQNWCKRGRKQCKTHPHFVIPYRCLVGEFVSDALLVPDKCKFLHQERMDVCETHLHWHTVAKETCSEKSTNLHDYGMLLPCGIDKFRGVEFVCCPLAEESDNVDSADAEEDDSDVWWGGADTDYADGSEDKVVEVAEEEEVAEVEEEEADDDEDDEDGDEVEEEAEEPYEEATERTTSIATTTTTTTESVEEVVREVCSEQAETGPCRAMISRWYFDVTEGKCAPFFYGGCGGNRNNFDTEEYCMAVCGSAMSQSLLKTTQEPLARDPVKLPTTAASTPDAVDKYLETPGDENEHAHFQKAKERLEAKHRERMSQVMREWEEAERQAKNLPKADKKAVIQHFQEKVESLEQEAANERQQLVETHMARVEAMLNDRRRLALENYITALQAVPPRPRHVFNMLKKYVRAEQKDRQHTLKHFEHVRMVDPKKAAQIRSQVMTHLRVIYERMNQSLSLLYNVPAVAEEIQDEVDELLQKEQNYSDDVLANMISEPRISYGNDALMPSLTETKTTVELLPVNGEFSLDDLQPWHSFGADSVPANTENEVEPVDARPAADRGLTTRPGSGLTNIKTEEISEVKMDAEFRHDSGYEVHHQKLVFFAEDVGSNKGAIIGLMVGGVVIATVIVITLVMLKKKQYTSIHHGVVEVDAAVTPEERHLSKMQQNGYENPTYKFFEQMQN

Structure (SMILES) | IC50 [1] [µM] | viability at 10 µM [2] [%]
COc1ccc(/C=C/c2cc(Br)cc(/C=C/c3ccc(OC)c(OC)c3)c2)cc1OC | 20 | 
CN(C)c1ccc(/C=C/c2cccc(/C=C/c3ccc(N(C)C)cc3)c2)cc1 | > 20 | 
CN(C)c1ccc(/C=C/c2cc(Br)cc(/C=C/c3ccc(N(C)C)cc3)c2)cc1 | > 20 | 
CN(C)c1ccc(/C=C/c2cc(I)cc(/C=C/c3ccc(N(C)C)cc3)c2)cc1 | > 20 | 
COc1cc(/C=C/c2cc(Cl)cc(/C=C/c3ccc(O)c(OC)c3)n2)ccc1O | 1.1 | 
COc1cc(/C=C/c2ccc(O)c(OC)c2)nc(/C=C/c2ccc(O)c(OC)c2)c1 | 1.7 | 
COc1cc(/C=C/c2cc(C)cc(/C=C/c3ccc(O)c(OC)c3)n2)ccc1O | 1.4 | 
COc1cc(/C=C/c2cc(N(C)C)cc(/C=C/c3ccc(O)c(OC)c3)n2)ccc1O | 1.9 | 
COc1cc(/C=C/c2cc(Br)cc(/C=C/c3ccc(N)c(OC)c3)n2)ccc1N | 1.1 | 
CNc1cc(/C=C/c2cccc(/C=C/c3ccc(OC)c(NC)c3)n2)ccc1OC | 1.1 | 
CNc1cc(/C=C/c2cccc(/C=C/c3ccc(OC)c(NC)c3)c2)ccc1OC | 1.3 | 
COc1ccc(/C=C/c2cccc(/C=C/c3ccc(OC)c(N(C)C)c3)c2)cc1N(C)C | 1.1 | 
CN(C)c1cc(/C=C/c2cccc(/C=C/c3ccc(O)c(N(C)C)c3)c2)ccc1O | 2.7 | 
COc1cc(/C=C/c2cccc(/C=C/c3ccc(N4CCCC4)c(OC)c3)c2)ccc1N1CCCC1 | > 20 | 
COc1cc(/C=C/c2cc(Br)cc(/C=C/c3ccc(N)c(OC)c3)c2)ccc1N | 1.8 | 
O=C(O)c1cc(/C=C/c2ccc(/C=C/c3ccc(O)c(C(=O)O)c3)c(I)c2)ccc1O | 8 | 
CN(C)c1cc(/C=C/c2cccc(/C=C/c3ccc(O)c(N(C)C)c3)n2)ccc1O | 2.3 | 
COc1cc(/C=C/c2cc(Br)cc(/C=C/c3ccc(O)c(OC)c3)n2)ccc1O | 1.1 | 
CNc1ccc(/C=C/c2cccc(/C=C/c3ccc(NC)c(OC)c3)c2)cc1OC [listing 2 of 2 here] |  | 150
COc1cc(/C=C/C(=O)CC(=O)/C=C/c2ccc(O)c(OC)c2)ccc1O [CURCUMIN] |  | 116

More lines, in order of falling IC50 [1], values ahead:

IC50 [1] [µM] | Structure (SMILES) | viability at 10 µM [2] [%]
1 | COc1cc(/C=C/c2cccc(/C=C/c3ccc(N(C)C)c(OC)c3)c2)ccc1N(C)C | 
0.9 | CNc1ccc(/C=C/c2cccc(/C=C/c3ccc(NC)c(O)c3)n2)cc1O | 
0.9 | CN(C)c1ccc(/C=C/c2cccc(/C=C/c3ccc(N(C)C)c(O)c3)n2)cc1O | 
0.9 | COc1ccc(/C=C/c2cccc(/C=C/c3ccc(OC)c(N(C)C)c3)n2)cc1N(C)C | 
0.8 | COc1cc(/C=C/c2cccc(/C=C/c3ccc(O)c(OC)c3)n2)ccc1O | 
0.8 | COc1cc(/C=C/c2cccc(/C=C/c3ccc(N(C)C)c(OC)c3)n2)ccc1N(C)C | 
0.7 | COc1cc(/C=C/c2cccc(/C=C/c3ccc(N)c(OC)c3)n2)ccc1N | 
0.7 | CN(C)c1ccc(/C=C/c2cccc(/C=C/c3ccc(N(C)C)c(O)c3)c2)cc1O | 
0.6 | COc1cc(/C=C/c2cccc(/C=C/c3ccc(N)c(OC)c3)c2)ccc1N | 
0.6 | CNc1ccc(/C=C/c2cccc(/C=C/c3ccc(NC)c(OC)c3)c2)cc1OC [listing 1 of 2 here] | 
0.6 | COc1ccc(/C=C/c2cccc(/C=C/c3ccc(OC)c(N)c3)n2)cc1N | 
0.6 | CN(C)c1ccc2cc3ccc(N(C)C)cc3nc2c1 [ACRIDINE ORANGE] | 
0.5 | CNc1ccc(/C=C/c2cccc(/C=C/c3ccc(NC)c(OC)c3)n2)cc1OC | 
0.5 | CNc1cc(/C=C/c2cccc(/C=C/c3ccc(O)c(NC)c3)n2)ccc1O | 
0.3 | COc1ccc(/C=C/c2cccc(/C=C/c3ccc(OC)c(N)c3)c2)cc1N | 
0.1 | COc1cc(/C=C/c2cc(Br)cc(/C=C/c3ccc(O)c(OC)c3)c2)ccc1O | 
